Data: patent US20140343017A1, “PYRROLE COMPOUND” (Kabushiki Kaisha Yakult Honsha, priority 2012, published 2014)

Tests used:
Experiment in all cases: Inhibitory effect on growth of human cancer cells (in vitro), WST-8
Assay type in all cases: cell-based
[1] = tested on: human non-small cell lung cancer A549 cells; settings: Homo sapiens, A549, 96 h, 96 hours culture
Method: (§1) Each pyrrole compound of the present invention was studied for its effects on the growth of human non-small cell lung cancer A549 cells and human colorectal cancer HT-29 cells and HCT116 cells. The cells of each line were suspended in an RPMI1640 medium supplemented with 10% fetal bovine serum and inoculated at a cell density of 1000 cells/50 μL/well to a 96-well plate. After overnight culture, each compound diluted with a medium was added thereto at a concentration of 50 μL/well, and the cells were further cultured for 96 hours. After the completion of culture, WST-8 (Seikagaku Corp.) was added thereto at a concentration of 10 μL/well, and the cells were cultured at 37° C. for approximately 1 hour under 5% CO2 conditions, followed by measurement of absorbance at 450 nm.

[2] = tested on: human colorectal cancer HT-29 cells; settings: Homo sapiens, HT-29, 96 h, 96 hours culture, read-out: IC50 (nM) HT29
Method: as §1

[3] = tested on: human colorectal cancer HCT116 cells; settings: Homo sapiens, HCT-116, 96 h, 96 hours culture
Method: as §1

SMILES	IC50 [1]	IC50 [2]	IC50 [3]
COc1ccc(C(=O)c2c(CCl)[nH]c(-c3nnn(CCOC(C)=O)n3)c2C)cc1Br [Compound 172, 2-(5-(4-(3-bromo-4-methoxybenzoyl)-5-(chloromethyl)-3-methyl-1H-pyrrol-2-yl)-2H-tetrazol-2-yl)ethyl acetate]	47 nM	34.5 nM	36.9 nM
Cc1[nH]c(-c2nnc(CCCl)o2)c(C)c1C(=O)c1cccc(Br)c1 [Compound 174, (3-bromophenyl)(5-(5-(2-chloroethyl)-1,3,4-oxadiazol-2-yl)-2,4-dimethyl-1H-pyrrol-3-yl)methanone]	77.1 nM	38.6 nM	44.6 nM
Cc1[nH]c(-c2nnc(C3CC3)o2)c(C)c1C(=O)c1cccc(Br)c1 [Compound 177, (3-bromophenyl)(5-(5-cyclopropyl-1,3,4-oxadiazol-2-yl)-2,4-dimethyl-1H-pyrrol-3-yl)methanone]	1.5 nM	0.4 nM	0.4 nM
Cc1[nH]c(-c2nnc(C(C)C)o2)c(C)c1C(=O)c1cccc(Br)c1 [Compound 178, (3-bromophenyl) (5-(5-isopropyl-1,3,4-oxadiazol-2-yl)-2,4-dimethyl-1H-pyrrol-3-yl)methanone]	71.8 nM	36.9 nM	45.1 nM
Cc1[nH]c(-c2nnc(C3CCC3)o2)c(C)c1C(=O)c1cccc(Br)c1 [Compound 179, (3-bromophenyl) (5-(5-cyclobutyl-1,3,4-oxadiazol-2-yl)-2,4-dimethyl-1H-pyrrol-3-yl)methanone]	800 nM	336 nM	329 nM
Cc1nnc(-c2[nH]c(C)c(C(=O)c3cccc(Br)c3)c2C)o1 [Compound 185, (3-bromophenyl) (2,4-dimethyl-5-(5-methyl-1,3,4-oxadiazol-2-yl)-1H-pyrrol-3-yl)methanone]	9.1 nM	1.8 nM	2.9 nM
Cc1[nH]c(-c2nnc(C(F)F)o2)c(C)c1C(=O)c1cccc(Br)c1 [Compound 186, (3-bromophenyl)(5-(5-(difluoromethyl)-1,3,4-oxadiazol-2-yl)-2,4-dimethyl-1H-pyrrol-3-yl)methanone]	289 nM	41.7 nM	64.1 nM
Cc1[nH]c(-c2nnc(C3(O)CC3)o2)c(C)c1C(=O)c1cccc(Br)c1 [Compound 188, (3-bromophenyl)(5-(5-(1-hydroxycyclopropyl)-1,3,4-oxadiazol-2-yl)-2,4-dimethyl-1H-pyrrol-3-yl)methanone]	37.8 nM	35.1 nM	40.4 nM
Cc1[nH]c(-c2nnc(C3(C)CC3)o2)c(C)c1C(=O)c1cccc(Br)c1 [Compound 189, (3-bromophenyl)(2,4-dimethyl-5-(5-(1-methylcyclopropyl)-1,3,4-oxadiazol-2-yl)-1H-pyrrol-3-yl)methanone]	164 nM	135 nM	199 nM
Cc1[nH]c(-c2nnc(C3CC3C)o2)c(C)c1C(=O)c1cccc(Br)c1 (stereo not drawn) [Compound 190, (3-bromophenyl) (2,4-dimethyl-5-(5-(2-methylcyclopropyl)-1,3,4-oxadiazol-2-yl)-1H-pyrrol-3-yl)methanone]	266 nM	192 nM	219 nM
CCc1nnc(-c2[nH]c(C)c(C(=O)c3cccc([N+](=O)[O-])c3)c2C)o1 [Compound 195, (5-(5-ethyl-1,3,4-oxadiazol-2-yl)-2,4-dimethyl-1H-pyrrol-3-yl)(3-nitrophenyl)methanone]	12.2 nM	8.5 nM	9.9 nM
Cc1[nH]c(-c2nnc(C3CC3)o2)c(C)c1C(=O)c1cccc([N+](=O)[O-])c1 [Compound 196, (5-(5-cyclopropyl-1,3,4-oxadiazol-2-yl)-2,4-dimethyl-1H-pyrrol-3-yl)(3-nitrophenyl)methanone]	9.9 nM	6.2 nM	5.5 nM
CCc1nnc(-c2[nH]c(C)c(C(=O)c3ccc(OC)c(Br)c3)c2C)o1 [Compound 197, (3-bromo-4-methoxyphenyl)(5-(5-ethyl-1,3,4-oxadiazol-2-yl)-2,4-dimethyl-1H-pyrrol-3-yl)methanone]	3.9 nM	0.9 nM	1.4 nM

Results, then the molecule that gave them:

IC50 [1]	IC50 [2]	IC50 [3]	SMILES
19.5 nM	9 nM	10.6 nM	Cc1[nH]c(-c2nnc(C3CC3)o2)c(C)c1C(=O)c1cccc(CO)c1 [Compound 199, (5-(5-cyclopropyl-1,3,4-oxadiazol-2-yl)-2,4-dimethyl-1H-pyrrol-3-yl)(3-(hydroxymethyl)phenyl)methanone]
389 nM	209 nM	647 nM	Cc1c(-c2nnc(C3CC3)o2)[nH]c(C2SCCCS2)c1C(=O)c1cccc(Br)c1 [Compound 200, (3-bromophenyl) (5-(5-cyclopropyl-1,3,4-oxadiazol-2-yl)-2-(1,3-dithian-2-yl)-4-methyl-1H-pyrrol-3-yl)methanone]
127 nM	50.5 nM	62.4 nM	COc1ccc(Br)cc1C(=O)c1c(C)[nH]c(-c2nnc(COC(C)=O)o2)c1C [Compound 202, (5-(4-(5-bromo-2-methoxybenzoyl)-3,5-dimethyl-1H-pyrrol-2-yl)-1,3,4-oxadiazol-2-yl)methyl acetate]
210 nM	171 nM	152 nM	Cc1[nH]c(-c2nnc(CO)o2)c(C)c1C(=O)c1cc(Br)ccc1O [Compound 203, (5-bromo-2-hydroxyphenyl)(5-(5-(hydroxymethyl)-1,3,4-oxadiazol-2-yl)-2,4-dimethyl-1H-pyrrol-3-yl)methanone]
31.1 nM	5.9 nM	8.9 nM	CC(=O)OCCc1nnc(-c2[nH]c(C)c(C(=O)c3cccc(Br)c3)c2C)o1 [Compound 204, 2-(5-(4-(3-bromobenzoyl)-3,5-dimethyl-1H-pyrrol-2-yl)-1,3,4-oxadiazol-2-yl)ethyl acetate]
64.9 nM	20.3 nM	37 nM	Cc1[nH]c(-c2nnc(CCO)o2)c(C)c1C(=O)c1cccc(Br)c1 [Compound 205, (3-bromophenyl)(5-(5-(2-hydroxyethyl)-1,3,4-oxadiazol-2-yl)-2,4-dimethyl-1H-pyrrol-3-yl)methanone]
31.5 nM	8.8 nM	9.5 nM	C=Cc1nnc(-c2[nH]c(C)c(C(=O)c3cccc(Br)c3)c2C)o1 [Compound 206, (3-bromophenyl)(2,4-dimethyl-5-(5-vinyl-1,3,4-oxadiazol-2-yl)-1H-pyrrol-3-yl)methanone]
205 nM	39.3 nM	42.9 nM	CC(=O)OCc1nnc(-c2[nH]c(C)c(C(=O)c3cccc(Br)c3)c2C)o1 [Compound 210, (5-(4-(3-bromobenzoyl)-3,5-dimethyl-1H-pyrrol-2-yl)-1,3,4-oxadiazol-2-yl)methyl acetate]
183 nM	44.1 nM	49.1 nM	Cc1[nH]c(-c2nnc(CO)o2)c(C)c1C(=O)c1cccc(Br)c1 [Compound 211, (3-bromophenyl) (5-(5-(hydroxymethyl)-1,3,4-oxadiazol-2-yl)-2,4-dimethyl-1H-pyrrol-3-yl)methanone]
999 nM	230 nM	286 nM	Cc1[nH]c(-c2nnc(CN)o2)c(C)c1C(=O)c1cccc(Br)c1 [Compound 214, (5-(5-(aminomethyl)-1,3,4-oxadiazol-2-yl)-2,4-dimethyl-1H-pyrrol-3-yl)(3-bromophenyl)methanone]
